We go through 30 compounds from patent US20260209228A1 (Elanco Tiergesundheit AG, priority 2018, published 2026).

The EC50 is the concentration that produces a half-maximal response.

The structures appear in SMILES notation.

In test [1] the test system is H. contortus (H.c.) larvae. Nature of the test: Ruminant gastrointestinal H. contortus larvae motility inhibition (Example B). Particulars: Haemonchus contortus, read-out: EC50 (motility inhibition).
Protocol: H.c. eggs isolated from lamb fecal matter are allowed to hatch overnight. Test compounds are diluted in DMSO and added to a 96-well plate containing appropriate media. H.c. larvae are added to each well and plates are incubated for the desired time(s). Motility is assessed using an LCD camera imaging system. Percent motility inhibition values are generated relative to the average of the DMSO-only wells.
The next test has as its system D. immitis microfilariae. The experiment in a line: Dog heart worm microfilariae motility inhibition (Example A). Format: cell-based. As to conditions: read-out: EC50 (motility inhibition).

In the case of `CN(C)c1c(C(=O)N[C@H]2CCOc3ccccc32)ncc2c(-c3cc(Cl)cc(Cl)c3)cccc12` [Example 2.1, N-[(4S)-chroman-4-yl]-8-(3,5-dichlorophenyl)-4-(dimethylamino) isoquinoline-3-carboxamide], the EC50 in test [1] was less than 1 µg/mL; in the test on D. immitis microfilariae, less than 0.1 µg/mL.

Turning to `CN(C)c1c(C(=O)N[C@H]2CCc3ccccc32)cnc2c(-c3cc(Cl)cc(Cl)c3)nccc12` [Example 1.21, 8-(3,5-dichlorophenyl)-4-(dimethylamino)-N-[(1S)-indan-1-yl]-1,7-naphthyridine-3-carboxamide], the EC50 in test [1] is less than 1 µg/mL; in the test on D. immitis microfilariae, less than 0.1 µg/mL.

Take `CN(C)c1c(C(=O)N[C@H]2CCOc3ccccc32)ncc2c(-c3cc(Cl)cc(Cl)c3)nccc12` [Example 3.1, N-[(4S)-chroman-4-yl]-8-(3,5-dichlorophenyl)-4-(dimethylamino)-2,7-naphthyridine-3-carboxamide]: the EC50 in test [1] was less than 1 µg/mL.

For `CN(C)c1c(C(=O)N[C@H]2CCOc3ccccc32)ccc2c(-c3cc(Cl)cc(Cl)c3)ccnc12` [Example 6.1, N-[(4S)-Chroman-4-yl]-4-(3,5-dichlorophenyl)-8-(dimethylamino)quinoline-7-carboxamide], the EC50 in test [1] was less than 1 µg/mL; in the test on D. immitis microfilariae, less than 0.1 µg/mL.

In the case of `O=C(N[C@H]1CCOc2ccccc21)c1cnc2c(-c3cc(Cl)cc(Cl)c3)nccc2c1N1CCOCC1` [Example 1.9, N-[(4S)-chroman-4-yl]-8-(3,5-dichlorophenyl)-4-morpholino-1,7-naphthyridine-3-carboxamide], the results for the EC50 (in test [1]; in the test on D. immitis microfilariae) were less than 1 µg/mL and less than 0.1 µg/mL, respectively.

With `O=C(N[C@H]1CCOc2ccccc21)c1cnc2c(-c3cc(Cl)cc(Cl)c3)nccc2c1C1CC1` [Example 1.20, N-[(4S)-chroman-4-yl]-4-cyclopropyl-8-(3,5-dichlorophenyl)-1,7-naphthyridine-3-carboxamide], the EC50 in test [1] is less than 1 µg/mL; in the test with D. immitis microfilariae it was less than 0.1 µg/mL.

As to `CN(C)c1c(C(=O)N[C@@H]2CCOc3ccsc32)cnc2c(-c3cc(Cl)cc(Cl)c3)nccc12` [Example 1.47, 8-(3,5-dichlorophenyl)-N-[(7R)-6,7-dihydro-5H-thieno[3,2-b]pyran-7-yl]-4-(dimethylamino)-1,7-naphthyridine-3-carboxamide], the values for the EC50 (in test [1]; in the test with D. immitis microfilariae) were less than 1 µg/mL and less than 0.1 µg/mL, respectively.

Consider `CN(C)c1c(C(=O)N[C@H]2CCOc3cc(F)ccc32)cnc2c(-c3cc(Cl)cc(Cl)c3)nccc12` [Example 1.17, 8-(3,5-dichlorophenyl)-4-(dimethylamino)-N-[(4S)-7-fluorochroman-4-yl]-1,7-naphthyridine-3-carboxamide], for which the EC50 in test [1] is less than 1 µg/mL; in the test on D. immitis microfilariae, less than 0.1 µg/mL.

As to `Cc1ccc2c(c1)OCC[C@@H]2NC(=O)c1cnc2c(-c3cc(Cl)cc(Cl)c3)nccc2c1N(C)C` [Example 1.45, 8-(3,5-dichlorophenyl)-4-(dimethylamino)-N-[(4S)-7-methylchroman-4-yl]-1,7-naphthyridine-3-carboxamide], the values for the EC50 (in test [1]; with D. immitis microfilariae) were less than 1 µg/mL and less than 0.1 µg/mL, respectively.

On to `CN(C)c1c(C(=O)N[C@H]2CCCc3ccccc32)cnc2c(-c3cc(Cl)cc(Cl)c3)nccc12` [Example 1.32, 8-(3,5-dichlorophenyl)-4-(dimethylamino)-N-[(1S)-tetralin-1-yl]-1,7-naphthyridine-3-carboxamide], for which the EC50 in test [1] is less than 1 µg/mL; in the test on D. immitis microfilariae it was less than 0.1 µg/mL.

As to `CN(C)c1c(C(=O)N[C@H]2CCOc3ccccc32)cnc2c(-c3ccc(Cl)cc3Cl)nccc12` [Example 1.54, N-[(4S)-chroman-4-yl]-8-(2,4-dichlorophenyl)-4-(dimethylamino)-1,7-naphthyridine-3-carboxamide], the EC50 in test [1] was less than 1 µg/mL; in the test on D. immitis microfilariae, less than 0.1 µg/mL.

For `CC(C)c1c(C(=O)N[C@H]2CCOc3ccccc32)cnc2c(-c3cc(Cl)cc(Cl)c3)nccc12` [Example 1.42, N-[(4S)-chroman-4-yl]-8-(3,5-dichlorophenyl)-4-isopropyl-1,7-naphthyridine-3-carboxamide], the EC50 is less than 1 µg/mL in test [1] and less than 0.1 µg/mL with D. immitis microfilariae.

Turning to `CN(C)c1c(C(=O)N[C@H]2CCOc3ccccc32)ccc2c(-c3cc(Cl)cc(Cl)c3)cccc12` [Example 5.1], the EC50 in test [1] was less than 1 µg/mL; with D. immitis microfilariae, less than 0.1 µg/mL.

Consider `CN(C)c1c(C(=O)N[C@H]2CCOc3ccccc32)cnc2c(N3CCc4cc(Cl)ccc43)nccc12` [Example 1.7, 8-(5-chloroindolin-1-yl)-N-[(4S)-chroman-4-yl]-4-(dimethylamino)-1,7-naphthyridine-3-carboxamide], for which, in test [1], the EC50 is less than 1 µg/mL.

As to `CN(C)c1c(C(=O)N[C@H]2CCOc3ccccc32)cnc2c(-c3cccc(Cl)c3Cl)nccc12` [Example 1.55, N-[(4S)-chroman-4-yl]-8-(2,3-dichlorophenyl)-4-(dimethylamino)-1,7-naphthyridine-3-carboxamide], the 50% effective concentration (EC50) in test [1] is less than 1 µg/mL; with D. immitis microfilariae, less than 0.1 µg/mL.

With `CN(C)c1c(C(=O)N[C@H]2CCOc3ccccc32)cnc2c(-c3cc(C(F)(F)F)cc(C(F)(F)F)c3)nccc12` [Example 1.52, 8-[3,5-bis(trifluoromethyl)phenyl]-N-[(4S)-chroman-4-yl]-4-(dimethylamino)-1,7-naphthyridine-3-carboxamide], the EC50 with D. immitis microfilariae is less than 0.1 µg/mL.

Take `N#CCc1c(C(=O)N[C@H]2CCOc3ccccc32)cnc2c(-c3cc(Cl)cc(Cl)c3)nccc12` [Example 1.38, N-[(4S)-chroman-4-yl]-4-(cyanomethyl)-8-(3,5-dichlorophenyl)-1,7-naphthyridine-3-carboxamide]: the figures for the EC50 (in test [1]; in the test with D. immitis microfilariae) were less than 1 µg/mL and less than 0.1 µg/mL, respectively.

Turning to `CN(C)c1c(C(=O)N[C@H]2CCOc3ccccc32)ccc2c(-c3cc(Cl)cc(Cl)c3)nccc12` [Example 4.1, N-[(4S)-chroman-4-yl]-1-(3,5-dichlorophenyl)-5-(dimethylamino)isoquinoline-6-carboxamide], the EC50 in test [1] was less than 1 µg/mL; with D. immitis microfilariae it was less than 0.1 µg/mL.

On to `Nc1c(C(=O)N[C@H]2CCOc3ccccc32)cnc2c(-c3cc(Cl)cc(Cl)c3)nccc12` [Example 1.12, 4-amino-N-[(4S)-chroman-4-yl]-8-(3,5-dichlorophenyl)-1,7-naphthyridine-3-carboxamide], for which the EC50 is less than 1 µg/mL in test [1] and less than 0.1 µg/mL in the test with D. immitis microfilariae.

On to `O=C(N[C@H]1CCOc2ccccc21)c1cnc2c(-c3cc(Cl)cc(Cl)c3)nccc2c1Cl` [Example 1.30, 4-chloro-N-[(4S)-chroman-4-yl]-8-(3,5-dichlorophenyl)-1,7-naphthyridine-3-carboxamide], for which the EC50 with D. immitis microfilariae is less than 0.1 µg/mL.

Consider `CN(C)c1c(C(=O)N[C@H]2CCOc3ccccc32)cnc2c(-c3ccccc3F)nccc12` [Example 1.49, N-[(4S)-chroman-4-yl]-8-(2-fluorophenyl)-4-(dimethylamino)-1,7-naphthyridine-3-carboxamide], for which the EC50 in the test on D. immitis microfilariae is less than 0.1 µg/mL.

Turning to `COc1ccc(F)c(-c2nccc3c(N(C)C)c(C(=O)N[C@H]4CCOc5ccccc54)cnc23)c1F` [Example 1.24, N-[(4S)-chroman-4-yl]-8-(2,6-difluoro-3-methoxyphenyl)-4-(dimethylamino)-1,7-naphthyridine-3-carboxamide], the EC50 in test [1] is less than 1 µg/mL; in the test with D. immitis microfilariae it was less than 0.1 µg/mL.

For the compound `O=C1CN(c2c(C(=O)N[C@H]3CCOc4ccccc43)cnc3c(-c4cc(Cl)cc(Cl)c4)nccc23)CN1` [Example 1.37, N-[(4S)-chroman-4-yl]-8-(3,5-dichlorophenyl)-4-(4-oxoimidazolidin-1-yl)-1,7-naphthyridine-3-carboxamide], the figures for the EC50 (in test [1]; with D. immitis microfilariae) were less than 1 µg/mL and less than 0.1 µg/mL, respectively.

For `CN(C)c1c(C(=O)N[C@H]2CCOc3ccccc32)cnc2c(-c3cc(F)cc(F)c3)nccc12` [Example 1.48, N-[(4S)-chroman-4-yl]-8-(3,5-difluorophenyl)-4-(dimethylamino)-1,7-naphthyridine-3-carboxamide], the EC50 in test [1] is less than 1 µg/mL; with D. immitis microfilariae, less than 0.1 µg/mL.

As for `COc1c(C(=O)N[C@H]2CCOc3ccccc32)cnc2c(-c3cc(Cl)cc(Cl)c3)nccc12` [Example 1.33, N-[(4S)-chroman-4-yl]-8-(3,5-dichlorophenyl)-4-methoxy-1,7-naphthyridine-3-carboxamide], the results for the EC50 (in test [1]; in the test with D. immitis microfilariae) were less than 1 µg/mL and less than 0.1 µg/mL, respectively.

Consider `C[C@H]1COc2ccccc2[C@H]1NC(=O)c1cnc2c(-c3cc(Cl)cc(Cl)c3)nccc2c1N(C)C` (racemic) [Example 1.39, 8-(3,5-dichlorophenyl)-4-(dimethylamino)-N-[rac-(3R,4S)-3-methylchroman-4-yl]-1,7-naphthyridine-3-carboxamide], for which the values for the EC50 (in test [1]; in the test on D. immitis microfilariae) were less than 1 µg/mL and less than 0.1 µg/mL, respectively.

`CN(C)c1c(C(=O)N[C@H]2CCOc3ccccc32)cnc2c(-c3cc(Cl)cc(Cl)c3)nccc12` [Example 1.1, N-[(4S)-chroman-4-yl]-8-(3,5-dichlorophenyl)-4-(dimethylamino)-1,7-naphthyridine-3-carboxamide]: the EC50 is less than 1 µg/mL in test [1] and less than 0.1 µg/mL in the test on D. immitis microfilariae.

`CN(C)c1c(C(=O)N[C@H]2CCOc3ccccc32)cnc2c(-c3cc(F)c(F)c(F)c3)nccc12` [Example 1.51, N-[(4S)-chroman-4-yl]-4-(dimethylamino)-8-(3,4,5-trifluorophenyl)-1,7-naphthyridine-3-carboxamide]: the EC50 in test [1] is less than 1 µg/mL; in the test with D. immitis microfilariae it was less than 0.1 µg/mL.

In the case of `CN(C)c1c(C(=O)N[C@H]2CCOc3ccccc32)ccc2c(-c3cc(Cl)cc(Cl)c3)cncc12` [Example 7.1, N-[(4S)-Chroman-4-yl]-4-(3,5-dichlorophenyl)-8-(dimethylamino)isoquinoline-7-carboxamide], the EC50 is less than 1 µg/mL in test [1] and less than 0.1 µg/mL in the test on D. immitis microfilariae.

Consider `CON(C)c1c(C(=O)N[C@H]2CCOc3ccccc32)cnc2c(-c3cc(Cl)cc(Cl)c3)nccc12` [Example 1.31, N-[(4S)-chroman-4-yl]-8-(3,5-dichlorophenyl)-4-[methoxy(methyl)amino]-1,7-naphthyridine-3-carboxamide], for which the EC50 in test [1] was less than 1 µg/mL; with D. immitis microfilariae it was less than 0.1 µg/mL.
